The values that follow come from US8197864B2, “Preparation, process and a regenerative method and technique for prevention, treatment and glycemic control of diabetes mellitus” (Arjuna Natural Extracts, priority 2004, dated 2012).

The test deals with normal rats. The experiment in a line: Hypoglycemic activity of fractions on blood sugar level in fasted normal rats. The following applies: glybenclamide 1 mg/kg, metformin 150 mg/kg; for blood sugar level, 1 hr: 1 hr after single oral dose: fractions 100 mg/kg; for blood sugar level, 3 hr: 3 hr after single oral dose: fractions 100 mg/kg; for blood sugar level, 5 hr: 5 hr after single oral dose: fractions 100 mg/kg; for blood sugar level, Fasting: fasting value before administration, single oral dose: fractions 100 mg/kg; for effect on blood glucose level (in words): single oral dose after 4 hours of fasting: fractions 100 mg/kg. The format is in vivo, Sprague dawley rats. How it is done: Activity of different extracts were tested using Sprague dawley rats of either sex aged 3 months weighing 180-200 g. After 3-4 hrs of fasting the rats were divided into 7 groups of 6 in each, one group kept as control and 4 groups were given different fractions (Fraction I, Fraction III, Fraction IV and Fraction V) of extract in the dose of 100 mg/kg. Sixth and seventh groups were given standard drugs glybenclamide (1 mg/kg) and metformin (150 mg/kg) respectively.
(See Table II, graph I) The extract/drug was administered orally (single dose) after 4 hours of fasting. […] In FIG. 2, the graph provides blood glucose level in normal rats in mg/dl measured over a duration of 5 hours. The normal rats were fed with different fractions of the extract after four hours of fasting.

Take `COc1ccc(Cl)cc1C(=O)NCCc1ccc(S(=O)(=O)NC(=O)NC2CCCCC2)cc1` [Glybenclamide, glybenclamide]: the “blood sugar level, 1 hr” value is reported as “*58.8 ± 9.8 mg/dl”; the “blood sugar level, 3 hr” value is listed as “*43.3 ± 8.2 mg/dl”; the “blood sugar level, 5 hr” value was “*43.2 ± 5.8 mg/dl”; the “blood sugar level, Fasting” value was 72.6 ± 8.6 mg/dL. Moreover, the “effect on blood glucose level (in words)” value was “significant (p<0.05) decrease in blood glucose level in the first hour”.

Turning to `CN(C)C(=N)N=C(N)N` [Metformin, metformin], the “blood sugar level, 1 hr” value came out at 70.6 ± 3.0 mg/dL; the “blood sugar level, 3 hr” value stood at 68.3 ± 2.6 mg/dL; the “blood sugar level, 5 hr” value is on record as “*61.5 ± 3.0 mg/dl”; the “blood sugar level, Fasting” value is 76.6 ± 4.1 mg/dL. Besides, the “effect on blood glucose level (in words)” value was “significant (p<0.05) decrease in blood glucose level in the fifth hour”.
